Consider one molecule from patent US20090123565A9, “Copper-dependent non-traditional pro-inflammatory cytokine export and methods, compositions and kits relating thereto” (Maine Medical Center Research Institute, priority 2001, published 2009).

Molecules are shown by their SMILES.

The conditions of data set [1]: rat, in vivo, 10 mg/kg.
Protocol: A copper chelator, ammonium tetrathiomolybdate (Sigma Aldrich), was administered daily in a dose of 10 mg/kg. The total daily amount was freshly dissolved into 45 ml water and was dispensed to the rats in the drinking water. To assess the effect of copper chelation on neointimal formation after common carotid artery denudation, TTM was given as follows: TTM administration started 2 weeks before the injury in 6 rats; 1 week before the injury in 6 rats; there was no pre-injury treatment with TTM in 5 rats. All those rats were treated with TTM for 2 weeks after the balloon injury. Five rats, which underwent the surgical procedure and were never treated with TTM, served as controls.
The subject of data set [2] is balloon-injured rat carotid artery. The experiment in a line: Cell proliferation in injured arterial wall (α-smooth muscle actin and PCNA immunostaining). It counts as in vivo, Sprague-Dawley rats. The method, then: (§1) In order to address the mechanisms underlying the effect of copper chelation on neointima formation, TTM was administered for 2 weeks before the balloon injury and daily after that until the animals were euthanized at the 4th and 7th day after the procedure. Accordingly, TTM-free animals euthanized 4 and 7 days after the injury were used as controls.
Proliferating cell nuclear antigen (PCNA) analysis was used to quantify the proliferative activity of cells at the balloon injury sites, and it was performed according to Siitonen et al. Briefly, PCNA-positive cells were counted in the vessel cross sections using a standard light microscope equipped with an ocular reticule (magnification ×10) and a ×40 objective. At least 500 nuclei were counted from each slide. The sections were photographed under low power, the images were video-digitized, and stored in the image analysis system (Qwin Lite 2.2, Leica). Staining results were expressed as percentage of PCNA-immunoreactive cell nuclei. Faint diffuse nuclear staining seen in some tissue sections was not included in the PCNA score.
(§2) Macrophage migration was evaluated by immunostaining with the macrophage-specific monoclonal antibody CD11b (MAC1) in acetone/ethanol fixed sections. To quantitate the extent of macrophage invasion, the area occupied by MAC1-positive cells as a percentage of the total area of the neointima was determined. The number of SMCs in the injured artery was counted at day 4, 7 and 14 by the modified method of Prescott et al. Briefly, the cross-sections were subjected to immunohistostaining against α-smooth muscle actin using a commercially available detection system (DAKO) and counter-stained with hematoxylin. The number of nuclei that were accompanied by α-smooth muscle actin-positive cytoplasm was counted at a magnification of ×40 in 10 independent sections from each rat by an observer in a blind manner.

The test system is the same in data set [3]. The experiment in a line: Macrophage infiltration into injured arterial wall (CD11b/MAC1 immunostaining). It counts as in vivo, Sprague-Dawley rats. The procedure:
as §1, §2

The test system is the same in data set [4]. The experiment in a line: Neointima formation after balloon injury of rat carotid artery (histomorphometry, I/M ratio). It counts as in vivo, Sprague-Dawley rats. The source says:
Seventy-nine Sprague-Dawley male rats (Charles River Laboratories) weighing 350 to 450 grams, at 12-16 weeks of age, were included in the study. All rats in this study were handled according to the animal welfare regulation of the Maine Medical Center Research Institute, and the study protocol has been approved by the Animal Care and Use Committee of that institution. The rats received humane care in accordance with the animal use principles of the American Society of Physiology. All rats were maintained under identical conditions of temperature (21±1° C.), humidity (60±5%), and light/dark cycle, and had free access to normal rat chow.
To assess the effect of time course of copper chelation in relation to the injury on the neointima formation, 5 additional groups of rats were studied. All of them were treated with TTM for 2 weeks before the injury, and then TTM was withheld as follows: at the day of the injury (n=6) as well as 4 days (n-5), 6 days (n=7), 8 days (n=6), and 10 days (n=6) after the balloon denudation.
Rats were anesthetized with an intraperitoneal injection of ketamine (50 mg/kg) and xylazine (2.2 mg/kg). Angioplasty of the carotid artery was performed with a balloon embolectomy catheter as previously described. Briefly, the balloon catheter (2F Fogarty, Edwards Laboratories) was introduced through the left external carotid artery into the aorta, and the balloon was inflated. The vessel was damaged by passing an inflated balloon through the lumen three times. The catheter was rotated when pulling back. At the time of the final experiment, the animals were euthanized after anesthesia. A midline abdominal incision exposing the distal abdominal aorta was made. After retrograde cannulation of the abdominal aorta at its bifurcation with a 18-gauge intravenous catheter, the arterial tree was cleared of blood by perfusion with 100 ml of PBS (pH 7.2), followed by in vivo fixation with either 4% formaldehyde in phosphate-buffered saline (pH 7.2) or acetone/ethanol solution in 1:1 ratio. The entire left and right carotid arteries were harvested, including the aortic arch, innominate artery and left carotid bifurcation, and further immersed in the respective fixative. The injured left common carotid arteries were cut in three sections at least 4 mm long from the proximal, middle and distal part. From each study group, a part from the untreated contra-lateral right common carotid artery (control) was taken as well. The specimens were then dehydrated through a graded ethanol series, and embedded in paraffin for sectioning. Other arteries were not perfusion-fixed but were removed and immediately frozen. Three different segments of the left carotid artery were used for histological, morphometric, and immunohistochemical studies.
Morphometric analysis of the arterial segment was carried out in a blind manner on cross-sections stained with hematoxylin-eosin. For each animal at least 3 sections originating from the proximal, middle and distal segment of the injured vessel were quantitatively measured. Using a computerized digital microscopic planimetry algorithm (Optimas, Version 5.22), the areas within the external elastic lamina (EEL area), the internal elastic lamina (IEL area), and the luminal area were measured. Other areas were calculated as follows: medial area=EEL area−IEL area; neointimal area=IEL area−luminal area; neointima-to-media (I/M ratio=neointimal area/medial area.

The test system of data set [5] is ceruloplasmin. Conditions: cited from earlier work.
The test system of data set [6] is serum ceruloplasmin. The experiment in a line: Serum ceruloplasmin (surrogate marker of free copper) in rats. The note with it: daily 10 mg/kg TTM within 4 weeks. It counts as in vivo, Sprague-Dawley rats. The method, then: Copper status in mammals treated with TTM cannot be reliably followed by measuring total serum copper level because the chelated copper will still be detected. Serum ceruloplasmin, whose synthesis is directly regulated by the bio-availability of copper to the liver, is a more accurate indicator of free copper and is used as a surrogate marker of free copper status Schosinksy et al., 1974, Clin. Chem. 20:1556-1563. Serum ceruloplasmin was assessed as baseline level before the TTM-treatment, as well as on the day of the injury and on the final day. Blood (0.5 to 1 ml) was obtained from the tail vein after anesthesia was centrifuged for 10 minutes at 2000×G and the serum was frozen at −20° C. until assay. Ceruloplasmin oxidative activity was measured as described previously (Schosinsky et al., 1974, Clin. Chem. 20:1556-1563).

Turning to `[NH4+].[NH4+].[SH-].[SH-].[S]=[Mo]=[S]` [TTM, ammonium tetrathiomolybdate], in data set [1], the “effects upon visual inspection of the animals” value is listed as “without detectable effects”. The “SMA-positive cells in the neointima vs TTM-free rats” value in data set [2] (7 and 14 days after the injury) is “significantly less abundant”; in data set [2] (day 4 after the balloon injury) it was “No significant difference”. Further, in data set [2] (14 days after balloon angioplasty, 10 mg/kg, 2 weeks before/2 weeks after injury, n=5, P<0.05), the “PCNA-positive cells in the neointimal area” value is recorded as “significant reduction”. Further, the “MAC1 positive cells in controls compared to treated rats” value in data set [3] (4 and 7 days after the injury) is “marked increase”. Besides, the “macrophages in the neointima vs control group” value in data set [3] (4 days after injury) is reported as “not detectably different”. In addition, in data set [3] (any time point after the injury (4 and 7 days)), the “macrophages within the arterial wall” value was “very few macrophages were present”. For the same molecule, the macrophages vs controls entry in data set [3] (day 7 after injury) is “more pronounced in the controls”. Further, the “neointima development, hematoxylin-eosin, vs controls” value in data set [4] (4 days after the injury) was “no difference”; in data set [4] (day 7 after the injury) it was “more pronounced in the controls”. For the same molecule, the intima/media ratio in data set [4] (14 days after balloon injury, TTM 10 mg/kg daily started 1 week before injury, 2 weeks after, n=6, controls 1.76±0.105) was determined as 0.96±0.121; in data set [4] (14 days after balloon injury, TTM 10 mg/kg daily started 2 weeks before injury, 2 weeks after, n=6, controls 1.76±0.105), 0.83±0.006; in data set [4] (14 days after balloon injury, TTM 10 mg/kg daily started on the day of injury, 2 weeks after, n=5, controls 1.76±0.105), 1.27±0.04; in data set [4] (TTM started 2 weeks before injury, continued 6 days after) it was 0.76±0.06; in data set [4] (TTM started 2 weeks before injury, continued 8 days after) it was 0.83±0.1; in data set [4] (TTM started 2 weeks before injury, continued 10 days after), 0.79±0.013. The intima/media ratio in data set [4] (TTM started 2 weeks before injury, stopped at the day of the injury) is 1.29±0.19. The “reduction in the neointima formation in the rat carotid artery” value in data set [4] (TTM administration before and after injury, vs controls) is on record as “up to 53%”. For the same molecule, the “I/M ratio compared to the controls” value in data set [4] (each TTM regimen, 14 days after balloon injury (FIG. 6E)) is recorded as “significant decrease”. Further, the “time to induce copper deficiency” value in data set [5] (humans, safely) is listed as 2-4 weeks. The “ceruloplasmin reduction to” value in data set [5] (patients with cancer, withstood for months and years (Brewer et al., 2000)) was 20 % of baseline; in data set [6] it was 0-20 % of its baseline level.
